Where two headings read alike, the source gives them in different places.
How the values were obtained:
[1] = molecular target: T1, Cyclin Dependent Kinase 1/Cyclin A2 (CDK1-cycA2) (Homo sapiens, UniProt P06493); assay: CDK1-cycA2 TR-FRET (Lance) enzyme assay; assay type: biochemical; conditions: Table O, enzymatic assay
T1 construct: purchased ProQinase 0134-0054-1
Description: (§1) Cyclin Dependent Kinase 1/Cyclin A2 (CDK1-cycA2), Cyclin Dependent Kinase 2/Cyclin E1 (CDK2-cycE1), Cyclin Dependent Kinase 4/Cyclin D3 (CDK4-cycD3) and Cyclin Dependent Kinase 6/Cyclin D3 (CDK6-cycD3) enzyme assays were carried out as described below.
(1) CDK1-cycA2 TR-FRET (Lance®)
(§2) An Echo acoustic dispenser is used to create dose responses of compound dissolved in DMSO into a 384-well microplate. A 5 μL volume of enzyme mix is added to the well, and pre-incubated with compound for 30 minutes. […] Buffer conditions are 50 mM HEPES, pH 7.5, 10 mM MgCl2, 2 mM TCEP, 0.05% BGG and 0.01% Brij 35. The reaction is quenched with 5 μL of EDTA in detection buffer (15 mM [EDTA final]). Finally, a 5 μL TR-FRET detection mix is added to the quenched reaction, which includes Europium labeled anti-phospho-4E-BP1. […] Signal is a ratio of the Acceptor and Donor fluorescence. Inhibition constants are calculated via the Morrison equation.

[2] = molecular target: T2, Cyclin Dependent Kinase 4/Cyclin D3 (CDK4-cycD3) (Homo sapiens, UniProt P11802); assay: CDK4-cycD3 TR-FRET (LANCE) enzyme assay; assay type: biochemical; conditions: Table O, enzymatic assay
T2 construct: purchased Carna Biosciences 04-105
T2 sequence (P11802 whole entry): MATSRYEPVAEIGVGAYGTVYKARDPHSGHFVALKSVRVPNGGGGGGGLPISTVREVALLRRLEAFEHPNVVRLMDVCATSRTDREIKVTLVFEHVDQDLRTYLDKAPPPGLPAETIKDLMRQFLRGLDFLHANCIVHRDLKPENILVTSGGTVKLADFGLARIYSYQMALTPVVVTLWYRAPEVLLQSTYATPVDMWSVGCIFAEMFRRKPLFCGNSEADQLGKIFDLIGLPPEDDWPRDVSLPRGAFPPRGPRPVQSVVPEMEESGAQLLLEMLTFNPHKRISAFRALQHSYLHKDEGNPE
T2 sequence (P30281 whole entry partner): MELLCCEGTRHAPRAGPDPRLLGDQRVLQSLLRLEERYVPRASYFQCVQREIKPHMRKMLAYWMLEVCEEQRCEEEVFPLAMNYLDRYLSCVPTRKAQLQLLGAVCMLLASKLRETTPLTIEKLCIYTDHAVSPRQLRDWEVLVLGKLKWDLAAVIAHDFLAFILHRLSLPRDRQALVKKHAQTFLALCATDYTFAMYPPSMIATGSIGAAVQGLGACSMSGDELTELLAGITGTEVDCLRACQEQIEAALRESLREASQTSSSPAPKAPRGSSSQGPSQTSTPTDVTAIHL
Description: as §1
(iii) CDK4-cycD3 TR-FRET (LANCE®)
as §2

[3] = molecular target: T3, Cyclin Dependent Kinase 2/Cyclin E1 (CDK2-cycE1) (Homo sapiens, UniProt P24941); assay: CDK2-cycE1 TR-FRET (LANCE) enzyme assay; assay type: biochemical; conditions: for Ki: enzymatic assay, read-out: CDK2 Ki; for FS CDK1/CDK2 / FS CDK4/CDK2: fold selectivity; for increased fold-selectivity CDK4/CDK2 over Comparator C: (+) sign after FS CDK4/CDK2;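 on improvement in potency against CDK2 (Ki) over Comparator C: fold lower CDK2 Ki than comparator c (Ki 0.032 µM)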
T3 construct: purchased ProQinase 0050-0055-1
Description: as §1
(ii) CDK2-cycE1 TR-FRET (LANCE®)
as §2, with “anti-phospho-MBP.” for “anti-phospho-4E-BP1.”, “equation. Enzyme source of CDK2-cycE1 is ProQinase, catalog #: 0050-0055-1.” for “equation.”

[4] = tested on: OVISE (JCRB1043, CCNE1-amplified); assay: OVISE EdU incorporation cell proliferation assay (CDK2-dependent); assay type: cell-based; conditions: for IC50: cellular assay, read-out: CDK2 OVISE IC50; for FS SKOV-3/OVISE: fold selectivity; for improvement in CDK2 OVISE cell potency over Comparator C: in brackets after OVISE IC50, Comparator C 5.5 μM; for increased fold-selectivity SKOV-3/OVISE over Comparator C: (+) sign after FS SKOV-3/OVISE
Description: (§3) (i) OVISE and SKOV-3 EdU Incorporation Cell Proliferation Assays
(§4) Ovarian cancer cell proliferation is measured by incorporation of EdU (5-ethynyl-2′-deoxyuridine) into newly synthesized DNA. CDK2-dependent proliferation is determined using OVISE (JCRB1043, CCNE1-amplified) while CDK4/6-dependent effect is determined with SKOV-3 (ATCC HTB-77) which is not CCNE1-amplified.
(§5) Cells are plated in 384-well plates in RPMI medium supplemented with 10% FBS. Compounds are added at desired concentrations with a final DMSO content of 0.5%, and cells incubated at 37° C./5% CO2 for 16 hours. EdU (Life Technologies) is added to a final concentration of 0.5 μM and incubation continued for 8 hours, followed by fixation with 4% paraformaldehyde. […] Images are acquired using Yokogawa CQ1 imaging cytometer with a 10×objective. […] The IC50 for inhibition of cell division is determined by fitting the fraction of EdU-positive cells as a function of compound dose using a 4-parameter logistic model.

SKOV-3 (ATCC HTB-77) = assay: SKOV-3 EdU incorporation cell proliferation assay (CDK4/6-dependent); assay type: cell-based; conditions: Homo sapiens, cellular assay, read-out: CDK4/6 SKOV-3 IC50
Description: as §3, §4, §5

[5] = Table O, enzymatic CDK1 Ki over CDK2 Ki
[6] = Table O, enzymatic CDK4 Ki over CDK2 Ki
[7] = Table O, cellular SKOV-3 IC50 over OVISE IC50

T1 sequence (P06493 whole entry): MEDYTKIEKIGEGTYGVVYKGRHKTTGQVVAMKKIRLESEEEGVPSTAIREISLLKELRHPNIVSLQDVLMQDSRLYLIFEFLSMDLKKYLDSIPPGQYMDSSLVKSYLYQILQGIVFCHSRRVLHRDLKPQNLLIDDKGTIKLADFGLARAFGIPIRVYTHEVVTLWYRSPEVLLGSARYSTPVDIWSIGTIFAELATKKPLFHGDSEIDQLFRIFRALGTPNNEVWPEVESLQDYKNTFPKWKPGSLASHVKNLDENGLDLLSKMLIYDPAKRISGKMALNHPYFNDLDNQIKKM
T1 sequence (P20248 whole entry partner): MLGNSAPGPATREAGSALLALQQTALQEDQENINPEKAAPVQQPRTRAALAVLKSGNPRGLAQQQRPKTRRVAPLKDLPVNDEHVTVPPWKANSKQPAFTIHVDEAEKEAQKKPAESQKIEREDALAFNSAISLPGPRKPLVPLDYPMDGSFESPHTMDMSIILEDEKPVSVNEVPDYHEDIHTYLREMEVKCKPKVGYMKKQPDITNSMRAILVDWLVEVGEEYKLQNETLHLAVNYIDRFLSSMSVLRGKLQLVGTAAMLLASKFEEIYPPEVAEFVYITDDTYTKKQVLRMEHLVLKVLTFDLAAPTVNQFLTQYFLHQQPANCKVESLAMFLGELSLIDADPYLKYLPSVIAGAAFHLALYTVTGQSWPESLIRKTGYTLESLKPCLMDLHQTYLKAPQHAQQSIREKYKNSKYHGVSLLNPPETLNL

improvement in potency against CDK2 (Ki) over Comparator C ([3]; Table Q, in brackets after CDK2 Ki, Comparator C 0.032 μM) [fold]	Structure (SMILES)	Ki [1] [nM]	Ki [2] [nM]	Ki ([3]; Table O) [nM]	FS CDK1/CDK2 [3, 5]	FS CDK4/CDK2 [3, 6]	increased fold-selectivity CDK4/CDK2 over Comparator C ([3]; Table Q)	Ki ([3]; Table Q) [nM]	FS CDK1/CDK2 ([3]; Table Q, enzymatic)	FS CDK4/CDK2 ([3]; Table Q, enzymatic)	IC50 ([4]; Table O) [nM]	FS SKOV-3/OVISE [4, 7]	IC50 ([4]; Table Q) [nM]	FS SKOV-3/OVISE ([4]; Table Q, cellular)	improvement in CDK2 OVISE cell potency over Comparator C ([4]; Table Q) [fold]	IC50 (SKOV-3 (ATCC HTB-77); SK-OV-3, Table O) [nM]	IC50 (SKOV-3 (ATCC HTB-77); SK-OV-3, Table Q) [nM]	improvement in potency against CDK2 (Ki) over Comparator C [3] [fold]	increased fold-selectivity SKOV-3/OVISE over Comparator C ([4]; Table Q)
0.4	Cc1cc(=O)n(C)cc1Nc1cc([C@H]2CC[C@@H](OC(=O)NC(C)C)C2)[nH]n1 [Example 2S, (1R,3S)-3-(3-((1,4-dimethyl-6-oxo-1,6-dihydropyridin-3-yl)amino)-1H-pyrazol-5-yl)cyclopentyl isopropylcarbamate]	7400	12000	890	8.3	13	(+) (The (+) sign in Table Q signifies desirable increased fold-selectivity of the exemplary compounds over Comparator C)	890	8.3	13	> 20000	1.0	> 20000	1.0	0.28	> 20000	> 20000	–	–
–	Cc1ncncc1Nc1cc([C@H]2CC[C@@H](OC(=O)NC(C)C)C2)[nH]n1 [Example 2U, (1R,3S)-3-(3-((4-methylpyrimidin-5-yl)amino)-1H-pyrazol-5-yl)cyclopentyl isopropylcarbamate]	560	1800	15	37	120	(+) (The (+) sign in Table Q signifies desirable increased fold-selectivity of the exemplary compounds over Comparator C)	15	37	120	400	>50	–	> 50	13.8	> 20000	> 20000	2	(+) (The (+) sign in Table Q signifies desirable increased fold-selectivity of the exemplary compounds over Comparator C)
–	Cc1ncc(Nc2cc([C@H]3CC[C@@H](OC(=O)NC(C)C)C3)[nH]n2)c(C)n1 [Example 2W, (1R,3S)-3-(3-((2,4-dimethylpyrimidin-5-yl)amino)-1H-pyrazol-5-y1)cyclopentyl isopropylcarbamate]	1100	3100	42	26	74	(+) (The (+) sign in Table Q signifies desirable increased fold-selectivity of the exemplary compounds over Comparator C)	42	26	74	2700	>7.4	–	> 7.4	2	> 20000	> 20000	0.8	(+) (The (+) sign in Table Q signifies desirable increased fold-selectivity of the exemplary compounds over Comparator C)
–	COc1ncc(Nc2cc([C@H]3CC[C@@H](OC(=O)NC(C)C)C3)[nH]n2)c(C)n1 [Example 2X, (1R,3S)-3-(3-((2-methoxy-4-methylpyrimidin-5-yl)amino)-1H-pyrazol-5-yl)cyclopenty1 isopropylcarbamate]	1200	3800	59	20	64	(+) (The (+) sign in Table Q signifies desirable increased fold-selectivity of the exemplary compounds over Comparator C)	59	20	64	2800	>7.1	–	> 7.1	2	> 20000	> 20000	0.5	(+) (The (+) sign in Table Q signifies desirable increased fold-selectivity of the exemplary compounds over Comparator C)
–	COc1nc(C)ncc1Nc1cc([C@H]2CC[C@@H](OC(=O)NC(C)C)C2)[nH]n1 [Example 2Y, (1R,3S)-3-(3-((4-methoxy-2-methylpyrimidin-5-yl)amino)-1H-pyrazol-5-yl)cyclopentyl isopropylcarbamate]	7500	49000	210	36	230	(+) (The (+) sign in Table Q signifies desirable increased fold-selectivity of the exemplary compounds over Comparator C)	210	36	230	16000	>1.3	–	>1.3	0.18	> 20000	> 20000	0.15	–
–	O=C(NC1CCOCC1)O[C@@H]1CC[C@H](c2cc(Nc3cccnn3)n[nH]2)C1 [Example 3D, (1R,3S)-3-(3-(pyridazin-3-ylamino)-1H-pyrazol-5-yl)cyclopentyl (tetrahydro-2H-pyran-4-yl)carbamate]	1400	2300	61	23	38	–	–	–	–	7900	>2.5	–	–	–	> 20000	–	–	–
–	CC1(NC(=O)O[C@@H]2CC[C@H](c3cc(Nc4cccnn4)n[nH]3)C2)COC1 [Example 3G, (1R,3S)-3-(3-(pyridazin-3-ylamino)-1H-pyrazol-5-yl)cyclopentyl (3-methyloxetan-3-yl)carbamate]	240	730	8.3	29	88	–	–	–	–	750	>27	–	–	–	> 20000	–	–	–

Reference: patent US20240425478A1, “CYCLOPENTYLPYRAZOLE CDK2 INHIBITORS” (Genentech, Inc., priority 2021, published 2024)
